Experimental data reported in US20100227356A1, “METHODS FOR ASSESSING EFFECTS ON SKELETAL GROWTH” (priority 2008, published 2010).

Tested on: neonatal limb culture
Test: X-ray imaging of neonatal mouse hind limb organ culture (effect of bisphosphonates on bone density)
Type: cell-based, Swiss albino mouse
Settings: 1 mM pamidronate in culture medium (well A) vs control (well B); neonatal limb in culture for 40 hours; FIG. 3
From the text: The method of the invention may be used to monitor the dynamic growth of an articulated skeletal […] by capturing a series of images overtime. In this example, an articulated lower portion (hind limb) of a limb of a neonatal, day-old Swiss albino mouse was removed and cultured in a well plate. The limb was scraped with a scalpel to abrade any skin and flesh sufficiently to allow an organ culture medium to reach the skeletal members. The scraped limb was superficially embedded in 1% agarose. The medium used for culture was 4 ml of minimum essential medium (Delbecco's Modified Eagle Medium), supplemented with 1 mM β glycerophosphate, ascorbic acid, 0.2% bovine serum albumin and antibiotics. The antibiotics contained 100 units/ml penicillin, and 100 μg/ml streptomycin. The skeletal members of the limbs continued to grow within the cultures and were imaged with X-rays (Time-Lapse-3 hrs; 11 to […] using a multi-modal system as previously described). Bone growth and mineral deposition could be measured, as could X-ray and column densities. Because the limb was articulated, the growth of individual skeletal members was influenced by neighboring members, just as in the case of growth in a living animal. The analytical X-ray imaging methodology according to the invention allows measurement of the growth of skeletal members of a neonatal mouse limb grown in vitro in organ culture. […]

NCCC(O)(P(=O)(O)O)P(=O)(O)O [pamidronate, Pamidronate]
bone density and size versus control (X-ray images): differences in bone density and size are observable
